Test results: patent US12016843B2, “Compositions and methods for the treatment of amyotrophic lateral sclerosis, parkinson's disease, parkinson's disease with dementia, dementia with lewy bodies, and multiple system atrophy” (priority 2019, dated 2024)

Assays:
[1] = system: SOD1 G93A high copy transgenic mice; test: Plasma neurofilament light chain (NfL) levels in SOD1 G93A mouse model of ALS; assay type: in vivo; settings: for plasma NfL levels Mean Diff. (Dunnett's multiple comparisons test, Vehicle vs. 0.5 mg/kg): 0.5 mg/kg daily ip; for plasma NfL levels Mean Diff. (Dunnett's multiple comparisons test, Vehicle vs. 0.5 mg/kg) / plasma NfL levels Mean Diff. (Dunnett's multiple comparisons test, Vehicle vs. 5.0 mg/kg): 10 weeks; for plasma NfL levels Mean Diff. (Dunnett's multiple comparisons test, Vehicle vs. 5.0 mg/kg): 5.0 mg/kg daily ip
Protocol: Study Design. Three experimental groups of n=20 (10 male, 10 female) SOD1 G93A high copy transgenic mice were dosed daily via intraperitoneal administration of vehicle control; (R)-2-amino-N—((S)-1-(((S)-5-amino-1-(3-benzyl-1,2,4-oxadiazol-5-yl)pentyl)amino)-3-(4-hydroxy-2,6-dimethylphenyl)-1-oxopropan-2-yl)-5-guanidinopentanamide (as its tris-HCl salt-(Ia)) at 0.5 mg/kg; or (R)-2-amino-N—((S)-1-(((S)-5-amino-1-(3-benzyl-1,2,4-oxadiazol-5-yl)pentyl)amino)-3-(4-hydroxy-2,6-dimethylphenyl)-1-oxopropan-2-yl)-5-guanidinopentanamide (as its tris-HCl salt—(Ia)) at 5.0 mg/kg. Animals were dosed beginning at 8 weeks of age and dosing was continued until humane end of life (defined by the inability of animal to right itself from either side within 30 seconds when placed on its side). Experimental endpoints and in-life collections and observations were as follows: • 1. Bodyweight measurement. Daily recording of weight. • 2. Neurological scoring. Weekly NeuroScore, a qualitative assessment of neurological disease progression based upon a five-point grading system. Scoring is defined as follows: • Score 0: Full extension of hind legs away from the lateral midline when the mouse is suspended by its tail, and the mouse can hold this extension for 2 seconds, being suspended 3 times consecutively. • Score 1: Collapse or partial collapse of the leg extension toward the lateral midline or trembling of hind legs during the tail suspension. • Score 2: Toes curl under at least twice during walking of 12 inches, or any part of the foot is dragging along the cage bottom or table. • Score 3: Rigid paralysis or minimal joint movement, the foot is not being used for forward motion. • Score 4: The mouse cannot right itself within 30 sec from either side. • 3. Grip strength test. Weekly forelimb grip strength, performed as follows: • a. Subjects are weighed and acclimated to the testing room for at least 60 min. • b. Equipment: Bioseb grip strength meter equipped with a grid for grasping that is suited for mice. • c. Mice are lowered towards the grid by their tails to allow for visual placing and for the mouse to grip the grid with their forepaws. • d. Subjects are firmly pulled horizontally away from the grid (parallel to the bench) for 3 consecutive trials with a brief (approximately 30 sec) rest period on the bench between trials. • e. The average force in grams of the 3 forepaw and 3 all-paws trials are analyzed with and without normalization to body weight. • 4. Retro-orbital blood collection. Bi-weekly retroorbital eye bleeds to determine drug exposure levels as well as levels of neurofilament light chain, a biomarker of axonal damage shown to correlate with ALS disease progression in human patients. Briefly, mice are sedated with isoflurane (5% induction, 2% maintenance) in O2. When they reach the plane of anesthesia, mice are withdrawn from isoflurane and blood is collected with a 25 μL glass capillary tube from the retro-orbital sinus, alternating sides for successive bleeds. 200 μL of whole blood is collected in a BD K2EDTA Microtainer collection tube containing 3.5 μL of 25X HALT protease inhibitor cocktail and kept on ice for processing. Mice are allowed to recover from the anesthesia, then returned to their home cage. Results […]

[2] = system: mitochondrial respiration in brain homogenate from the infarcted area; test: Mitochondrial respiration (respiratory control ratio) in brain homogenate after endothelin-1 induced ischemic stroke; assay type: in vivo, Sprague Dawley rats; settings: rats, ET-1 middle cerebral artery occlusion, 5 mg/kg sc at 24 and 4 hours prior to ischemia, measured 24 hours after onset
Protocol: Ischemic stroke was induced in Sprague Dawley rats via middle cerebral artery occlusion with the vasoconstrictive peptide endothelin-1 (ET-1; 240 pmol per injection). Compound Ia was administered to each rat at 24 and 4 hours prior to onset of ischemia via subcutaneous injection at 5 mg/kg. Mitochondrial respiration was measured in brain homogenate excised from the infarcted area 24 hours following the onset of ischemia using high resolution respirometry (OxyGraph 02K). Respiratory control ratio was calculated as complex I supported oxidative phosphorylation divided by Complex I linked leak respiration. Results are illustrated in FIG. 5B, ** p<0.01, one-way ANOVA.

[3] = system: C57BL/6 mice injected with A53T mutant alpha-synuclein viral particles; test: Dopaminergic neuron loss in substantia nigra pars compacta induced by AAV9 human A53T alpha-synuclein (TH positive neuron counts); assay type: in vivo, mouse; settings: 0.5 mg/kg or 5.0 mg/kg daily ip for 5 weeks, vs group A (A53T AAV, no drug)
Protocol: Dopaminergic neuron loss in the substantia nigra pars compacta (SNc) was induced in wildtype C57BL/6 mice using AAV9 mediated viral delivery of human alpha-synuclein harboring the pathogenic A53T mutation. 4×10^10 viral particles per SNc were injected bilaterally via stereotactic surgery. Animals were nine weeks of age when viral transduction was performed. Animals were treated daily with intraperitoneal administration of (Ia) beginning 24 hours before viral transduction and continued for 5 weeks. Experimental groups were as follows: • 1. Group A—AAV A53T injected, vehicle treatment (n=7) • 2. Group B1—AAV A53T injected, (Ia) at 0.5 mg/kg treatment (n=8) • 3. Group B2—AAV A53T injected, (Ia) at 5.0 mg/kg treatment (n=8) • 4. Group C1—Sham AAV9 injected, (Ia) at 0.5 mg/kg treatment (n=6) • 5. Group C2—Sham AAV9 injected, (Ia) at 5.0 mg/kg treatment (n=7)
Five weeks following viral transduction, animals were sacrificed and brains were removed and processed for immunohistochemistry and cell counts (i.e., number of TH positive neurons) in the substantia nigra pars compacta were performed via automated stereology. Serial sections were cut and stained with tyrosine hydroxylase (TH) to enumerate the number of dopaminergic neurons. Results are illustrated in FIGS. 6A and 6B; ** p<0.01 vs groups; *** p<0.001 vs group A; ^OO p<0.001 vs group C1 and C2.

## Cc1cc(O)cc(C)c1C[C@H](NC(=O)[C@H](N)CCCNC(=N)N)C(=O)N[C@@H](CCCCN)c1nc(Cc2ccccc2)no1.Cl.Cl.Cl [Compound Ia, (R)-2-amino-N—((S)-1-(((S)-5-amino-1-(3-benzyl-1,2,4-oxadiazol-5-yl)pentyl)amino)-3-(4-hydroxy-2,6-dimethylphenyl)-1-oxopropan-2-yl)-5-guanidinopentanamide·3HCl]
[1]; female SOD1 G93A mice
  plasma NfL levels Mean Diff. (Dunnett's multiple comparisons test, Vehicle vs. 0.5 mg/kg): −1075
  plasma NfL levels Mean Diff. (Dunnett's multiple comparisons test, Vehicle vs. 5.0 mg/kg): 1291
[1]; male SOD1 G93A mice
  plasma NfL levels Mean Diff. (Dunnett's multiple comparisons test, Vehicle vs. 0.5 mg/kg): 897.8
  plasma NfL levels Mean Diff. (Dunnett's multiple comparisons test, Vehicle vs. 5.0 mg/kg): 3469
[1]; male SOD1 G93A mice, 5.0 mg/kg, 10 weeks of administration
  accumulation of NfL in plasma: statistically significant impact on the accumulation of NfL
[2]
  mitochondrial respiration in brain (respiratory control ratio): restored mitochondrial respiration in brain
[3]
  mutant alpha-synuclein-induced loss of dopaminergic neurons in the substantia nigra (number of TH positive neurons): significantly attenuated
